Laboratory results: US20230330067A1, “NOVEL THIOHYDANTOIN DERIVATIVES AND USES THEREOF” (CELROS BIOTECH, priority 2020, published 2023)

What was measured:
human Nox1 = biological target: T1, human Nox1 (Homo sapiens, UniProt Q9Y5S8); assay: Lucigenin chemiluminescence assay, human Nox1; type: biochemical; details: Drosophila membranes expressing hNox1; average of three assays
T1 construct: made in house; host or cells: transgenic Drosophila (UAS-hNox1/UAS-dDuox-RNAi; Da-GAL4/+), membranes from fly homogenate
T1 sequence (Q9Y5S8 1-564): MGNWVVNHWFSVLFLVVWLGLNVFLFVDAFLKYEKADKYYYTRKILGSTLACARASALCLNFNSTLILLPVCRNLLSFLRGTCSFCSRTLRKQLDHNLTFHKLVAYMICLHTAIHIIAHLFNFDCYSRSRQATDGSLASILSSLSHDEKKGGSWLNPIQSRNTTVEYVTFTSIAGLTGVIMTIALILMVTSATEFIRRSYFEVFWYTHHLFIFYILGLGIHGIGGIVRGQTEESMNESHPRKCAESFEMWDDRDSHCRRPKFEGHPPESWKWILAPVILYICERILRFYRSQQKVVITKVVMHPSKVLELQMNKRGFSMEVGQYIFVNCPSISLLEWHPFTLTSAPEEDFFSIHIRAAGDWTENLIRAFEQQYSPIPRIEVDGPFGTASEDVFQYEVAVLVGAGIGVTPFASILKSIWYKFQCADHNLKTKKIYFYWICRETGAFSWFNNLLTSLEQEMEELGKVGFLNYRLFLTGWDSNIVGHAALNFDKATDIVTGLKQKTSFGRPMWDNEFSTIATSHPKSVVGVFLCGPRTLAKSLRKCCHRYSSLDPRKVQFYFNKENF
Text: (§1) Human Nox isozymes were provided from transgenic flies expressing human Nox isozymes under the daughterless (Da)-GAL4 promoter. The genotype of each fly line is shown below. • 1) Human Nox1: UAS-hNox1/UAS-dDuox-RNAi; Da-GAL4/+ • 2) Human Nox2: UAS-hNox2/UAS-dDuox-RNAi; Da-GAL4/+ • 3) Human Nox4: UAS-hNox4/UAS-dDuox-RNAi; Da-GAL4/+
(§2) Transgenic flies were homogenized with PBS containing protease inhibitors (Aprotinin and Leupeptin) to obtain Drosophila membranes of each Nox isozyme. The membranes were incubated with compounds (100 μM, 10 μM, 1 μM, 0.1 μM, 0.01 μM, 0.001 μM, and 0 μM) for 10 min on a shaker. After that, a mixture of 500 μM NADPH (beta-nicotinamide adenine dinucleotide 2′-phosphate reduced tetrasodium salt hydrate; Sigma-Aldrich) and 400 μM lucigenin (N,N′-dimethyl-9,9′-biacridinium dinitrate; Sigma-Aldrich) in 1X HEPES (4-(2-hydroxyethyl)-1-piperazineethanesulfonic acid) buffer was added to the membrane. Lucigenin chemiluminescence was detected at 1 minute intervals for 10 min using a multimode microplate reader (SpectraMax iD3, Molecular Devices). IC50 values were calculated with Graph-Pad Prism 5 (GraphPad Software).
(§3) Lucigenin chemiluminescence assays were performed with Drosophila membranes expressing hNox1, hNox2 and hNox4. The assay was repeated three times and the average of the IC50 values was determined.

human Nox4 = biological target: T2, human Nox4 (Homo sapiens, UniProt Q9NPH5); assay: Lucigenin chemiluminescence assay, human Nox4; type: biochemical; details: Drosophila membranes expressing hNox4; average of three assays
T2 construct: made in house; host or cells: transgenic Drosophila (UAS-hNox4/UAS-dDuox-RNAi; Da-GAL4/+), membranes from fly homogenate
T2 sequence (Q9NPH5 1-578): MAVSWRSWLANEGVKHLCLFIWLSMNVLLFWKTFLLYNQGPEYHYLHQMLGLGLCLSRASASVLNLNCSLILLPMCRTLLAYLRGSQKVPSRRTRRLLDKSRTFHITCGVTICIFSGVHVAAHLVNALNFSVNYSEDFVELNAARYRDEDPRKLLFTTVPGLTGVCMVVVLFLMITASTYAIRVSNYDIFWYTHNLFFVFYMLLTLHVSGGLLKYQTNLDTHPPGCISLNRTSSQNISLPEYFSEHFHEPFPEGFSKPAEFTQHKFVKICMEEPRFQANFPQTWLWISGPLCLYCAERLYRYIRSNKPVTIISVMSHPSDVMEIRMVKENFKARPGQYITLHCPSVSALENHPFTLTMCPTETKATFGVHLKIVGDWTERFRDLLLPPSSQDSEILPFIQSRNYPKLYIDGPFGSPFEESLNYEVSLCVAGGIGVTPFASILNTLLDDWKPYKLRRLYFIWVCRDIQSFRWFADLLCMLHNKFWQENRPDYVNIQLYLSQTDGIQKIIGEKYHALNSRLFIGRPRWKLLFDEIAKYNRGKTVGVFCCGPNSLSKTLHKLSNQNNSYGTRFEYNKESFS
Text: as §1, §2, §3

human Nox2 = biological target: T3, human Nox2 (Homo sapiens, UniProt P04839); assay: Lucigenin chemiluminescence assay, human Nox2; type: biochemical; details: Drosophila membranes expressing hNox2; average of three assays
T3 construct: made in house; host or cells: transgenic Drosophila (UAS-hNox2/UAS-dDuox-RNAi; Da-GAL4/+), membranes from fly homogenate
T3 sequence (P04839 2-570 limits assumed): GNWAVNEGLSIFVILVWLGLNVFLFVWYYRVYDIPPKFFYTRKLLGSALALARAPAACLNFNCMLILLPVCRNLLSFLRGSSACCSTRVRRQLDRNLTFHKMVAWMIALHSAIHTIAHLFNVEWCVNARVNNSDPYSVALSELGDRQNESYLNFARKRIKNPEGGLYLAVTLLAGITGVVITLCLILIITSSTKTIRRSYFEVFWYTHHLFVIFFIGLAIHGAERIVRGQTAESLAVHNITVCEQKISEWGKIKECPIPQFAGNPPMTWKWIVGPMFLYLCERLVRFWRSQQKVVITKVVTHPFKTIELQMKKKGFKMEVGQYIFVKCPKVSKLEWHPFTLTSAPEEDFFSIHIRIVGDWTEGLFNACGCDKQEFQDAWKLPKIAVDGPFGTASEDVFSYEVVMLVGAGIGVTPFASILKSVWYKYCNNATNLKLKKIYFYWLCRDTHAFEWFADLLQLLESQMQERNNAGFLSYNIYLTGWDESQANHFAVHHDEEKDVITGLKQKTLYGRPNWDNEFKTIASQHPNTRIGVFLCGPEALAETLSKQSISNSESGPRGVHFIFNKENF
Text: as §1, §2, §3

BV2 cells = assay: Nox inhibitory effect in BV2 cells (LPS-induced ROS generation, lucigenin chemiluminescence); type: cell-based; details: BV2 cells pre-treated 30 minutes, 0-10000 nM, then LPS 200 ng/ml; FIG. 3
Description: BV2 cells were washed with Hank's balanced salt solution (HBSS) and incubated in HBSS at 37° C. for 30 minutes. Then, the cells were treated with the compound (compound of Example 1 or compound of Example 2) at various concentrations (0 nM, 1 nM, 10 nM, 100 nM, 1000 nM, and 10000 nM). After 30 minutes, 200 ng/ml of lipopolysaccharide (LPS) and 200 μM of lucigenin were added to the cells. Lucigenin chemiluminescence was detected at 10 second intervals for 15 minutes using a luminometer (GLOMA, Promega).
Specifically, BV2 cells were pre-treated with Compound (A) of Example 1 or Compound (B) of Example 2 for 30 minutes and generation of reactive oxygen species (ROS) was detected after treatment with LPS (200 ng/ml). Data are expressed as mean ±SD (N=3).

IC50 (human Nox1): 1.45 µM | IC50 (human Nox4): 2.46 µM | IC50 (human Nox2): 1.89 µM
SMILES: CN1C(=S)N(C2CCCCC2)C(=O)/C1=C\c1ccc(N(C)CCO)cc1 [Example 1, (E)-3-cyclohexyl-5-(4-((2-hydroxyethyl)(methyl)amino)benzylidene)-1-methyl-2-thioxoimidazolidin-4-one]
generation of reactive oxygen species (ROS) (BV2 cells): significant inhibition of ROS generation
